The record followed here is patent publication US10357036B2, “Compounds for controlling arthropods” (priority 2015, dated 2019).

One experiment has as its system Viola tricolor (VIOTR). The experiment can be described thus: Herbicidal activity, pre-emergence. The experiment is classed as in vivo. The note with it: 1280 g/ha, 3 weeks. The source says:
(§1) Seeds of monocotyledonous and dicotyledonous weed plants and crop plants were placed in wood-fibre pots in sandy loam and covered with soil. The compounds according to the invention, formulated as emulsion concentrates (EC), were then applied to the surface of the covering soil as an emulsion at a water application rate equating to 600 to 800 Uha with addition of 0.2% wetting agent.
(§2) After the treatment, the pots were placed in a greenhouse and kept under good growth conditions for the test plants. The damage to the test plants was scored visually after a test period of 3 weeks by comparison with untreated controls (herbicidal activity in percent (%): 100% activity=the plants have died, 0% activity=like control plants). Here, for example, compounds No. Ia-17, Ia-37, Ia-28 and Ia-56 at an application rate of 1280 g/ha each show 100% efficacy against Amaranthus retroflexus (AMARE) and with the exception of Ia-56, even against Viola tricolor (VIOTR). Furthermore, compounds no. Ia-17, Ia-37 and Ia-28 at the same application rate show an 80% or better efficacy against Matricaria inodorae (MATIN) and Ia-17 and Ia-37 even against Stellaria media (STEME).

Experiment [1] concerns Amaranthus retroflexus (AMARE). As to the kind of experiment: Herbicidal activity, pre-emergence. The class given is in vivo. The note with it: 1280 g/ha, 3 weeks.
Source text: as §1, §2

The subject of the next experiment is Stellaria meida (STEME). As to the kind of experiment: Herbicidal activity, post-emergence. The class given is in vivo. The note with it: 1280 g/ha, 3 weeks. The procedure:
(§3) Seeds of monocotyledonous and dicotyledonous weeds and crop plants were placed in sandy loam in wood-fibre pots, covered with soil and cultivated in a greenhouse under good growth conditions. 2 to 3 weeks after sowing, the test plants are treated at the one-leaf stage. The compounds according to the invention, formulated as emulsion concentrates (EC), were then sprayed onto the green plant parts as an emulsion at a water application rate equating to 600 to 800 Uha with addition of 0.2% wetting agent. After the test plants have been left to stand in the greenhouse under optimal growth conditions for 3 weeks, the efficacy of the preparations was assessed visually in comparison to untreated controls (herbicidal efficacy in percent (%): 100% activity=the plants have died, 0% activity=like control plants). For example, compounds No. Ia-17, Ia-28 and Ia-37 at an application rate of 1280 g/ha each show at least 100% efficacy against Amaranthus retroflexus (AMARE) and Viola tricolor (VOTR).

Experiment [2] deals with Matricaria inodora (MATIN). The experiment can be described thus: Herbicidal activity, post-emergence. The conditions noted are these: 1280 g/ha, 3 weeks. The experiment is classed as in vivo. The procedure:
as §3

Experiment [3] has as its system Abutilon theophrasti (ABUTH). The experiment can be described thus: Herbicidal activity, post-emergence. The class given is in vivo. The conditions noted are these: 1280 g/ha, 3 weeks. The protocol:
as §3

For the next experiment, the system named is Tetranychus urticae. The experiment can be described thus: Tetranychus urticae spray test, OP-resistant (bean leaf discs). The class given is in vivo. The note with it: 100 g/ha; after 6 days. The protocol:
After 6 days, the efficacy in % is determined.

Another experiment relates to Phaedon cochleariae. As to the kind of experiment: Phaedon cochleariae spray test. The conditions noted are these: 100 g/ha; after 7 days.
In another experiment the test system is Musca domestica. The experiment can be described thus: Musca domestica test. The class given is in vivo. The note with it: 100 ppm; adult houseflies; after 2 days. The protocol:
(§4) • Solvent: dimethyl sulfoxide
To produce a suitable active ingredient formulation, 10 mg of active ingredient are mixed with 0.5 ml of dimethyl sulfoxide, and the concentrate is diluted with water to the desired concentration.
Vessels containing a sponge treated with sugar solution and the active ingredient formulation of the desired concentration are populated with 10 adult houseflies (Musca domestica).

The test system of a further experiment is Spodoptera frugiperda. As to the kind of experiment: Spodoptera frugiperda spray test. The class given is in vivo. The note with it: 100 g/ha; after 7 days.
Experiment [4] deals with cattle ticks (Boophilus microplus) Parkhurst strain, SP-resistant. The experiment can be described thus: Boophilus microplus dip test. The experiment is classed as in vivo. The note with it: 100 ppm; assessed after 7 days. A digest of the protocol:
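Engorged adult female ticks (8-10 per tube) fully immersed in compound from DMSO stock diluted with water to test concentration, then held in a climate-controlled room. Efficacy scored after 7 days from fertile egg laying, with eggs kept until hatching at about 42 days. 100% means no fertile eggs laid.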

For experiment [5], the system named is Ctenocephalides felis. As to the kind of experiment: Ctenocephalides felis in vitro contact test with adult cat fleas. The experiment is classed as in vivo. The note with it: application rate 5 μg/cm^2 (=500 g/ha); after 48 h; dead or moribund fleas. A digest of the protocol: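 Glass tubes were coated with compound in acetone (900 ppm solution gives 5 μg/cm²), dried, then loaded with 5–10 adult cat fleas. Held horizontal at room temperature and ambient humidity for 48 h. Efficacy is the % of fleas dead or moribund (motionless or uncoordinated after knock-down).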

The test system of the next experiment is Myzus persicae. The experiment can be described thus: Myzus persicae spray test (bell pepper plants). The class given is in vivo. The conditions noted are these: 4 ppm; after 6 days. The protocol:
To produce further test concentrations, the latter is diluted with emulsifier-containing water. When addition of ammonium salts and/or penetrants is required, these are each added at a concentration of 1000 ppm to the preparation solution.
Bell pepper plants (Capsicum annuum), which are heavily infested by the green peach aphid (Myzus persicae), are treated by being sprayed with the active compound preparation at the desired concentration.
After 6 days, the kill in % is determined.

A further experiment concerns Boophilus microplus. As to the kind of experiment: Boophilus microplus injection test. The experiment is classed as in vivo. The conditions noted are these: 20 μg/animal; assessed after 7 days. The protocol: as §4
1 μl of the active ingredient solution is injected into the abdomen of 5 engorged adult female cattle ticks (Boophilus microplus). The animals are transferred into dishes and kept in a climate-controlled room.

Experiment [6] has as its system Ctenocephalides felis. The experiment can be described thus: Ctenocephalides felis oral test. The class given is in vivo. The note with it: 100 ppm in citrated cattle blood; after 2 days.
Another experiment relates to Rhipicephalus sanguineus. The experiment can be described thus: Rhipicephalus sanguineus in vitro contact test with adult brown dog ticks. The note with it: application rate 5 μg/cm^2 (=500 g/ha); after 48 h; dead or moribund ticks. The class given is in vivo. A digest of the protocol: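 Adult Rhipicephalus sanguineus (5-10 per tube) held in glass tubes coated with compound from acetone solution, 900 ppm giving 5 μg/cm^2, in the dark at room temperature. After 48 h ticks put on a 45-50° C hotplate up to 5 min; motionless or uncoordinated ticks scored dead/moribund as % efficacy.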

For `CC(=O)NCc1cccc(-c2cnn(-c3c(Cl)cc(C(F)(C(F)(F)F)C(F)(F)F)cc3[S+](C)[O-])c2)c1` (stereo not drawn) [Ia-17], the herbicidal efficacy in the experiment with Viola tricolor (VIOTR) is recorded as 100%; in [1], 100%; with Stellaria meida (STEME), not below 80%; in experiment [2], not below 80%; in experiment [3], not below 80%.
Regarding `CC(=O)NCc1cc(-c2cnn(-c3c(C)cc(C(F)(C(F)(F)F)C(F)(F)F)cc3C)c2)ccc1Cl` [Ia-95], the efficacy amounted to 100% in the experiment on Tetranychus urticae; 100% in the experiment on Phaedon cochleariae; 100% in the experiment with Spodoptera frugiperda; 100% in the experiment on Ctenocephalides felis [5]; 80% in the experiment with Rhipicephalus sanguineus. Moreover, the “efficacy (rate of extermination)” value in the experiment with Musca domestica and with Ctenocephalides felis [6] was 100% in each case. Moreover, the “efficacy (laying of fertile eggs)” value (in [4]; with Boophilus microplus) was 100% throughout. Further, the “efficacy (kill)” value with Myzus persicae is on record as 85%.
